Reference: ChEMBL document CHEMBL1133799, “A disubstituted NAD+ analogue is a nanomolar inhibitor of trypanosomal glyceraldehyde-3-phosphate dehydrogenase” (Bioorg Med Chem Lett, 2001)

Tests used:
[1] = system: Trypanosoma brucei; test: Effective dose required against Trypanosoma brucei in bloodstream; format: functional; details: read-out: ED50 (the source's name)
[2] = Inhibitory concentration against Trypanosoma brucei glyceraldehyde-3-phosphate dehydrogenase (GAPDH)
[3] = system: Trypanosoma cruzi; test: Effective dose required against Trypanosoma cruzi amastigotes; details: read-out: ED50 (the source's name)
[4] = Inhibitory concentration against Trypanosoma cruzi glyceraldehyde-3-phosphate dehydrogenase (GAPDH)
[5] = Inhibitory concentration against rabbit muscle glyceraldehyde-3-phosphate dehydrogenase (GAPDH); set-up: species or system Oryctolagus cuniculus
[6] = molecular target: glyceraldehyde-3-phosphate dehydrogenase (Leishmania mexicana); test: Inhibitory concentration against Leishmania mexicana glyceraldehyde-3-phosphate dehydrogenase (GAPDH)
[7] = system: NIH3T3; test: Effective dose required against Trypanosoma cruzi amastigotes in 3T3 Fibroblasts; format: functional; details: Mus musculus, read-out: ED50 (the source's name)
[8] = molecular target: glyceraldehyde-3-phosphate dehydrogenase (Leishmania mexicana); test: Inhibitory concentration against Leishmania mexicana glyceraldehyde-3-phosphate dehydrogenase (GAPDH); remark: listed apart in the source
[9] = system: Trypanosoma cruzi; test: Effective dose required against Trypanosoma cruzi amastigotes; details: read-out: ED50 (the source's name); remark: listed apart in the source

Row | SMILES | EC50 [1] [µM] | IC50 [2] [µM] | EC50 [3] [µM] | IC50 [4] [µM] | IC50 [5] [µM] | IC50 [6] [µM] | EC50 [7] [µM] | IC50 [8] [µM] | EC50 [9] [µM]
1 | COc1cccc(C(=O)N[C@@H]2[C@H](O)[C@@H](COP(=O)(O)O)O[C@H]2n2cnc3c(NCc4cccc5ccccc45)ncnc32)c1 | 32 | 7 | 6 | 5 | > 100 | 2 | 90 |  | 
2 | NC(=O)c1ccc[n+]([C@@H]2O[C@H](COP(=O)([O-])O)[C@@H](O)[C@H]2O)c1 [BETANMN] |  |  |  |  | > 500 | > 500 |  |  | 
3 | N=C(N)c1ccc(OCCCCCOc2ccc(C(=N)N)cc2)cc1 [PENTAMIDINE] | 0.008 |  |  |  |  |  |  |  | 
4 | O=C(Cn1ccnc1[N+](=O)[O-])NCc1ccccc1 [BENZNIDAZOLE] |  |  |  |  |  |  | > 50 |  | 
5 | COc1cccc(C(=O)N[C@@H]2[C@H](O)[C@@H](CO)O[C@H]2n2cnc3c(NCc4cccc5ccccc45)ncnc32)c1 | 30 | 25 |  | 12 | > 50 |  | > 50 | 6 | 20
